Measurements taken from US20160067241A1, “COMPOSITIONS AND METHODS TO IMPROVE THE THERAPEUTIC BENEFIT OF SUBOPTIMALLY ADMINISTERED CHEMICAL COMPOUNDS INCLUDING SUBSTITUTED NAPHTHALIMIDES SUCH AS AMONAFIDE FOR THE TREATMENT OF IMMUNOLOGICAL, METABOLIC, INFECTIOUS, AND BENIGN OR NEOPLASTIC HYPERPROLIFERATIVE DISEASE CONDITIONS” (priority 2013, published 2016).

Legend:
[1] = molecular target: glycogen synthase kinase-3β (GSK-3β) (Homo sapiens, UniProt P49841); conditions: cited from earlier work
[2] = test system: white blood cell count (WBC); conditions: patients; cited from earlier work
N-acetyltransferase NAT2 = molecular target: T1, N-acetyltransferase NAT2 (Homo sapiens, UniProt P11245); conditions: cited from earlier work
T1 sequence (P11245 1-290): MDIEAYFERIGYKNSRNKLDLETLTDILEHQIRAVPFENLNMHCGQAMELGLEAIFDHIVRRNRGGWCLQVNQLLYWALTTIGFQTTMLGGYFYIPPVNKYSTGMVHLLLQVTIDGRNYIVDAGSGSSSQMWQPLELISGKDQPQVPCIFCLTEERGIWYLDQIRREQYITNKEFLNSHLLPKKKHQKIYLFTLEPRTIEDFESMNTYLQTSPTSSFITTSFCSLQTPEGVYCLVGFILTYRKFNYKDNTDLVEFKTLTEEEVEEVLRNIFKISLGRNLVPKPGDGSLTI

topoisomerase II = conditions: Hsiang et al. 1989; cited from earlier work
[3] = test system: RIF-1 murine fibrosarcoma; assay: RIF-1 fibrosarcoma tumor growth delay (tumor volume quadrupling time) in mice; assay type: in vivo, Female C3H mice; conditions: for enhancement of amonafide activity by sensitizing or potentiating agent: agent given with amonafide
Source text: Tables 1 and 2, shown in FIGS. 1 and 2, respectively, show the use of amonafide, alone or in combination with another anti-neoplastic drug, in a tumor model in mice as described below Female C3H mice (Charles River Laboratories, Hollister, Calif.), approximately 3 months old, were used for the study. The average body weight was approximately 25 g. Animals were maintained in isolator cages on a 12-hour light-and-dark cycle. Food and water were available ad libitum. The RIF-1 murine fibrosarcoma cell line was maintained in in vitro culture (Waymouth medium supplemented with 20% fetal bovine serum) at 37° C. in a humidified 5% CO2 incubator. Log-phase RIF-1 cells were trypsinized and harvested from cell culture flasks to yield a concentration of 4×10^6 cells/mL, then injected intradermally in a volume of 50 μL (equivalent to 2×10^5 cells per injection) into both flanks of each mouse. Nine days later, when tumors reached approximately 100 mm^3 in size, the animals were randomized to different treatment groups. The intraperitoneal injection volume was 100 μL. The oral administration volume was 100 μL. For evaluation of tumor growth delay, tumors were measured three times weekly for up to 22 days with Vernier calipers. Tumor volume (cubic millimeters, mm^3) was calculated according to the following formula: V=π/6×D1×D2×D3, where D1, D2, and D3 are perpendicular diameters measured in […]. Tumor volume quadrupling time (TVQT), defined as the time required for a tumor to grow to four times (4×) its initial volume (at the time of treatment), was used as a study endpoint. The TVQT was determined for each treatment group and expressed in days as the mean±standard error (SE). In these tables, “CDDP” is cisplatin, “VBL” is vinblastine, “HHT” is homoharringtonine, “5FU” is 5-fluorouracil, “CPT” is camptothecin, “RA” is rosmarinic acid, and “MGBG” is methylglyoxalbisguanylhydrazone. For solvents and excipients, “Sal” is saline, “NMF” is N-methylformamide, and “PEG400” is polyethylene glycol 400. For routes of administration, “IP” is intraperitoneal, “PO” is oral, “IM” is intramuscular, and “SC” is subcutaneous. In these tables, the use of the “+” symbol means that both drugs were administered at the same time, while the use of the “ ? ” symbol means that the drug to the left of the symbol was administered first, followed by the drug to the right of the symbol; the second drug was administered 30 minutes after the first drug. In the headings for these tables, “Days to 4×” is the number of days it takes the tumors to grow to four times their original size. “T/C” represents the average number of days that it takes the tumors to grow to four times their original size for the specified treatment divided by the number of days that it takes the tumors to grow to four times their original size for the control.

Sequence of glycogen synthase kinase-3β (GSK-3β) (P49841 whole entry, species assumed): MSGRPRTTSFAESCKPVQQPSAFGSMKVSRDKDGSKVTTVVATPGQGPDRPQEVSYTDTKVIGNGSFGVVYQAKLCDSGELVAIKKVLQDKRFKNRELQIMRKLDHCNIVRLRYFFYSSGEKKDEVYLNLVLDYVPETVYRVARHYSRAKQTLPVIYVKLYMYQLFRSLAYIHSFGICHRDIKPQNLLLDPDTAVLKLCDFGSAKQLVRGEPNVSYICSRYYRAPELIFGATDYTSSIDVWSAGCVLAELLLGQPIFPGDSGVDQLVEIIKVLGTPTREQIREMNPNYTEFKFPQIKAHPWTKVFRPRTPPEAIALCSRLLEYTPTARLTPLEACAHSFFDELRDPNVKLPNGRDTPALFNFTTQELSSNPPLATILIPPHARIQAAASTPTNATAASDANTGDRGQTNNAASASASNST

SMILES: CN1C(=O)/C(=C2/C(=O)Nc3ccccc32)c2ccccc21 [Meisoindigo]
- concentration for inhibition of GSK-3β [1]: 5 to 50 nM

SMILES: CC(=O)Nc1cc2c3c(cccc3c1)C(=O)N(CCN(C)C)C2=O [acetyl amonafide]
- impact on white blood cell count [2]: induce leukocytopenia and, in particular, granulocytopenia

SMILES: CN(C)CCN1C(=O)c2cccc3cc(N)cc(c23)C1=O [amonafide, 5-amino-2-[2-(dimethylamino)ethyl]-1H-benzo[de]isoquinoline-1,3(2H)-dione]
- metabolism by NAT2 (N-acetyltransferase NAT2): converted to an active metabolite by way of the N-acetyltransferase NAT2
- promotion of topoisomerase II-mediated DNA cleavage (topoisomerase II): promote topoisomerase II-mediated DNA cleavage
- effect on tumor growth ([3]; RIF-1 tumors in C3H mice, alone or in combination with another anti-neoplastic drug): significant effect on tumor growth
- combination effect with another anti-neoplastic drug ([3]; amonafide administered together with another anti-neoplastic drug): evidence of synergism
- enhancement of antitumor effects of other drugs (chemosensitizer or chemopotentiator) ([3]; amonafide combined with a second drug): enhanced the antitumor effects of cisplatin, 5-fluorouracil, homoharringtonine, vinblastine, camptothecin, methylglyoxalbisguanylhydrazone, and cytarabine
- antiproliferative activity by route ([3]; direct systemic (intraperitoneal) administration or oral route): active antiproliferative agent
- activity by schedule ([3]; single administration or multiple oral doses): active after a single administration or given as multiple doses orally

SMILES: COc1ccc2cc3[n+](cc2c1OC)CCc1cc2c(cc1-3)OCO2 [berberine]
- enhancement of amonafide activity by sensitizing or potentiating agent [3]: enhances amonafide activity

SMILES: NC(=O)c1cccnc1 [nicotinamide]
- enhancement of amonafide activity by sensitizing or potentiating agent [3]: enhances amonafide activity
